Test system: mice
Experiment: Tail suspension test (antidepression)
Format: in vivo
Protocol: The drug to be tested was dissolved in DMSO: Tween 80: distilled water at a ratio of 2:2:96 (v/v/v), and then administered to mice by gavage at a volume of 10 mL/kg. […] The blank control group was only given 10 mL/kg of the above solvent.
The mouse tail suspension test (TST) is a widely used experimental method to evaluate the effectiveness of antidepressants and other psychotropic drugs. The principle of the test is to suspend a mouse by its tail and observe its behavior. The mouse will initially struggle to escape, but when it realizes that escape is impossible, it will eventually stop struggling and enter a state of immobility that indicates despair. This immobility behavior is used to measure depression-like states, and the severity of the condition is assessed by recording the duration of immobility.
The same mouse was subjected to the tail suspension test immediately after the marble burying test. A tail suspension test box was built using a black frosted acrylic board, 55 cm high, 15 cm long, and 11.5 cm wide. The three sides and top of the box were frosted blackboards, and one side was used for video recording. The mouse tail was wrapped with yellow tape 2 cm away from the tip of the tail, and the mouse was hung upside down in the middle of the top acrylic board. The tip of the mouse tail was about 3 cm away from the acrylic board, and the body was suspended and could not touch the surrounding board wall. The test time for each mouse lasted for 6 minutes, and the immobility time of the mouse during this time was counted. After the experiment, the mouse was returned to the cage, and the inside of the box and the table were wiped with alcohol to remove the smell of the previous mouse to prevent affecting the next mouse experiment. The criteria for immobility in the tail suspension test: stop struggling, no flexion or twisting of the body, no swinging of the hind limbs, and slight swinging of the forelimbs and head were also counted as immobility time.

Structure (SMILES): Cn1c(=O)n(CCCO)c(=O)c2c1nc(C1(F)CCC(F)(F)CC1)n2Cc1ccc(F)c(Cl)c1 [Example E68, 7-(3-chloro-4-fluorobenzyl)-1-(3-hydroxypropyl)-3-methyl-8-(1,4,4-trifluorocyclohexyl)-3,7-dihydro-1H-purine-2,6-dione]
- immobility time of mice in the tail suspension box (oral 0.03 mg/kg, test with reduced dosage (Figure 6), comparable to 0.1 mg/kg of HC-070): significantly reduce
- immobility time of mice (oral 0.1, 0.3, 1 mg/kg, before versus after administration (Figure 4)): significantly reduced

Source: EP4663640A1 (Shanghai Institute of Materia Medica, Chinese Academy of …, priority 2023, dated 2024)
